One experiment has as its target human NMUR2 receptor (Homo sapiens, UniProt Q9GZQ4). Nature of the experiment: Radioligand binding competition assay (RLB), human NMUR2 receptor binding (SPA, [125I]-Neuromedin U-25). To be noted: CHO-K1 hNMUR2 cell membranes, 4 hours at RT. Details: host or cells: CHO-K1. The text has this: Example 1: Radioligand Binding Competition Assay (RLB) Human NMUR2 Receptor Binding
The test is based on membranes prepared from a Human NMUR2/Apoaequorin Stable Cell Line (Creative Biogene, Cat. No. CSC-RG1309).
Cell Line Description: CHO-NMUR2 cell line is clonally derived from a CHO-K1 cell line, which has been transfected with a bicistronic expression plasmid containing the sequence coding for the human neuromedin U receptor 2 (AF242874.1). MOSAIC-ID: CL16550616.
Membrane preparation: Cells were broken by nitrogen cavitation (900 psi, 1 hour). Intact cells were removed by centrifugation (400 rcf (relative centrifugal force), 10 minutes, 4° C.) before the crude membrane fraction was collected by ultracentrifugation (20.000 rcf, 1 hour, 4° C.).
2) Human NMUR2 Receptor Binding Assay (Radioligand: [125I]-Neuromedin U-25 (Human))
In this Scintillation Proximity Assay (SPA) design, the membranes immobilize directly to the PVT-WGA-PEI type A beads (polyethyleneimine treated polyvinyltoluene beads coupled to wheatgerm agglutinin, Perkin Elmer) via interactions of wheat germ agglutinate and glycosylated membrane structures. Thereby the radioactively la-belled ligand, bound to NMUR2 receptors on the membrane, comes in close proximity to the solid scintillator of the PVT bead. Radioactive human neuromedin U-25 then stimulates the scintillant to emit light. In contrast, radioligand not bound to the receptor is too distant from the bead to elicit a signal.
For the Scintillation Proximity Assay the CHO-K1 hNMUR2 cell membranes and SPA-beads are diluted to concentrations, which assure a robust signal to background ratio. The SPA incubation buffer consists of 25 mM Hepes (pH=7.0), 5 mM MgCl2, 1 mM CaCl2, 10 ug/mL Saponine and 0.1% bovine serum albumin and is used for all dilutions.
Final assay setup in 96-well plate: 20 μL of 10× test compound dilutions+40 μL of 5× [125l]-Neuromedin U-25 (1× approx. 30 pM; 2000 μCi/mmol)+60 μL membrane dilution (approx. 2.5 μg membrane protein)+80 μL SPA bead dilution (0.75 mg).
The assay is incubated for 4 hours at RT, including controls for specific binding where no displacer is added and non-specific binding by adding unlabeled hNMU-25 at 100 nM. Bound radioactivity is determined by scintillation counting (MicroBeta Trilux 1450, Perkin Elmer, detection of 125I decay). […] The system assumes one binding site with no relevant radioligand depletion (<10%) and that the binding is reversible and at equilibrium.

Another experiment concerns the target T1, human NMUR1 receptor (Homo sapiens, UniProt Q9HB89).
T1 construct: host or cells: CHO-K1
T1 sequence (Q9HB89 24-426 limits assumed): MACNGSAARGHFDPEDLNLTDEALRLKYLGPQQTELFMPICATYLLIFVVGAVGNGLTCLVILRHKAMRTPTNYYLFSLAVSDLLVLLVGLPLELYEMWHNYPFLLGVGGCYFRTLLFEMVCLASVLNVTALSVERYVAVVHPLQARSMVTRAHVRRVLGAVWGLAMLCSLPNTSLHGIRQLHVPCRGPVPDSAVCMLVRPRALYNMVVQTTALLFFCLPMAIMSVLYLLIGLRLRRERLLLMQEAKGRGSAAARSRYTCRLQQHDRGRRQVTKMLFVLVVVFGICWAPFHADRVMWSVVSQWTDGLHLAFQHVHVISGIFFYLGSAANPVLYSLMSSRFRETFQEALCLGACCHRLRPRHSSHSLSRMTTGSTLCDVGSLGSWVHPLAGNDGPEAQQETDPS
The experiment can be described thus: Radioligand binding competition assay (RLB), human NMUR1 receptor binding (SPA, [125I]-Neuromedin U-25). To be noted: CHO-K1 hNMUR1 cell membranes, 4 hours at RT. The text has this: Example 2: Radioligand Binding Competition Assay (RLB) Human NMUR1 Receptor Binding 1) Membranes The test is based on membranes prepared from a human NMUR1/Apoaequorin Stable Cell Line (Creative Biogene, Cat. No. CSC-RG1308). Cell Line Description: CHO-NMUR1 cell line is clonally-derived from a CHO-K1 cell line, which has been transfected with a bicistronic expression plasmid containing the sequence coding for the human neuromedin U receptor 1 (NM_006056.4, 180 to 1391). Mosaic-ID: CL16550614 Membrane preparation: Cells were broken by nitrogen cavitation (900 psi, 1 hour). Intact cells were removed by centrifugation (400 rcf, 10 minutes, 4° C.) before the crude membrane fraction was collected by ultracentrifugation (20.000 rcf, 1 hour, 4° C.). 2) Human NMUR1 Receptor Binding Assay (Radioligand: [125l]-Neuromedin U-25) In this Scintillation Proximity Assay (SPA) design, the membranes immobilize directly to the PVT-WGA-PEI type A beads (polyethyleneimine treated polyvinyltoluene beads coupled to wheatgerm agglutinin, Perkin Elmer) via interactions of wheat germ agglutinate and glycosylated membrane structures. Thereby the radioactively la-belled ligand, bound to NMUR1 receptors on the membrane, comes in close proximity to the solid scintillator of the PVT bead. Radioactive human neuromedin U-25 then stimulates the scintillant to emit light. In contrast, radioligand not bound to the receptor is too distant from the bead to elicit a signal. For the Scintillation Proximity Assay the CHO-K1 hNMUR1 cell membranes and SPA-beads are diluted to concentrations, which assure a robust signal to background ratio. The SPA incubation buffer consists of 25 mM Hepes (pH=7.0), 5 mM MgCl2, 1 mM CaCl2, 10 ug/mL Saponine and 0.1% bovine serum albumin and is used for all dilutions. Final assay setup in 96-well plate: 20 μL of 10× test compound dilutions+40 μL of 5× [125l]-Neuromedin U-25 (1× approx. 30 pM; 2000 μCi/mmol (μCi=microcurie))+60 μL membrane dilution (approx. 1.0 μg membrane protein)+80 μL SPA bead dilution (250 μg). The assay is incubated for 4 hours at RT, including controls for specific binding where no displacer is added and non-specific binding by adding unlabeled hNMU-25 at 100 nM. Bound radioactivity is determined by scintillation counting (MicroBeta Trilux 1450, Perkin Elmer, detection of 125I decay). […] The system assumes one binding site with no relevant radioligand depletion (<10%) and that the binding is reversible and at equilibrium. [formula] [formula]

Residues, ends and D or L forms follow the SMILES beside them.

As usually defined, the Ki is the dissociation constant of the complex between target and ligand, obtained from inhibition or displacement. The low end stands for higher affinity, the high end for lower affinity.

human NMUR2 receptor, sequence (Q9GZQ4 whole entry): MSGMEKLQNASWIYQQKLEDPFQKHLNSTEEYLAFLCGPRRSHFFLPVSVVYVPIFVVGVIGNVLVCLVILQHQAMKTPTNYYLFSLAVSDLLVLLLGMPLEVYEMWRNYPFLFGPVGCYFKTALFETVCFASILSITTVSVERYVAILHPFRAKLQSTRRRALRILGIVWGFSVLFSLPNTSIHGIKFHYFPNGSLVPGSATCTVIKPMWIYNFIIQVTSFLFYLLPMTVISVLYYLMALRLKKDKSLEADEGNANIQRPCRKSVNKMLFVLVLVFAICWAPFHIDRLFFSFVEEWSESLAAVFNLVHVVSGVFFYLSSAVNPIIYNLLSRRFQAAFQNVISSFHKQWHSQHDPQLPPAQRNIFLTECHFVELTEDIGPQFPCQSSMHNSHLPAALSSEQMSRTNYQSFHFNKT

Turning to `CCCC[C@H](NC(=O)[C@H](CC(C)C)N(C)C(=O)[C@H](Cc1ccccc1)NC(=O)[C@H](Cc1ccc(O)cc1)NC(=O)CN1CCN(CCNC(=O)CN(C)C(=O)CN(C)C(=O)CN(C)C(=O)CN(C)C(=O)CN(C)C(=O)CN(C)C(=O)CN(C)C(=O)CN(C)C(=O)CN(C)C(=O)CN(C)C(=O)CN(C)C(=O)CN(C)C(=O)CC[C@H](NC(=O)CC[C@H](NC(=O)CC[C@H](NC(=O)CCCCCCCCCCCCCCCCC(=O)O)C(=O)O)C(=O)O)C(=O)O)CC1)C(=O)N[C@@H](CCCNC(=N)N)C(=O)N(C)[C@@H](C)C(=O)N[C@@H](CCCNC(=N)N)C(=O)NCC(N)=O` [Compound 12, C18DA-gGlu3-Sar12-AEPipAc-Tyr-Phe-NMeLeu-Nle-Arg-NMeAla-Arg-Gly-NH2], the values for the Ki on human NMUR2 receptor and on human NMUR1 receptor were 36.2 nM and over 10000 nM, respectively.
For `CCCC[C@H](NC(=O)[C@H](CC(C)C)N(C)C(=O)[C@H](Cc1ccccc1)NC(=O)[C@H](Cc1ccc(O)cc1)NC(=O)CN1CCN(CCNC(=O)CN(C)C(=O)CN(C)C(=O)CN(C)C(=O)CN(C)C(=O)CN(C)C(=O)CN(C)C(=O)CN(C)C(=O)CN(C)C(=O)CN(C)C(=O)CN(C)C(=O)CN(C)C(=O)CN(C)C(=O)CC[C@H](NC(=O)CC[C@H](NC(=O)CC[C@H](NC(=O)CCCCCCCCCCCCCCCCCCC(=O)O)C(=O)O)C(=O)O)C(=O)O)CC1)C(=O)N[C@@H](CCN)C(=O)N1CCC[C@H]1C(=O)N[C@@H](CCCNC(=N)N)C(=O)NCC(N)=O` [Compound 8, C20DA-gGlu3-Sar12-AEPipAc-Tyr-Phe-NMeLeu-Nle-Dbu-Pro-Arg-Gly-NH2], the Ki was 89.1 nM on human NMUR2 receptor and over 10000 nM on human NMUR1 receptor.
For `CCCC[C@H](NC(=O)[C@H](CC(C)C)N(C)C(=O)[C@H](Cc1ccccc1)NC(=O)[C@H](Cc1ccc(O)cc1)NC(=O)CN1CCN(CCNC(=O)CN(C)C(=O)CN(C)C(=O)CN(C)C(=O)CN(C)C(=O)CN(C)C(=O)CN(C)C(=O)CN(C)C(=O)CN(C)C(=O)CN(C)C(=O)CN(C)C(=O)CN(C)C(=O)CN(C)C(=O)CC[C@H](NC(=O)CC[C@H](NC(=O)CC[C@H](NC(=O)CCCCCCCCCCCCCCCCC(=O)O)C(=O)O)C(=O)O)C(=O)O)CC1)C(=O)N[C@@H](CCCNC(=N)N)C(=O)N1CCC[C@H]1C(=O)N[C@@H](CCCNC(=N)N)C(=O)NCC(N)=O` [Compound 25, C18DA-gGlu3-Sar12-AEPipAc-Tyr-Phe-NMeLeu-Nle-Arg-Pro-Arg-Gly-NH2], the Ki at human NMUR2 receptor is 23.1 nM; on human NMUR1 receptor it was over 10000 nM.
In the same order, the values of `CCCC[C@H](NC(=O)[C@H](CC(C)C)N(C)C(=O)[C@H](Cc1ccccc1)NC(=O)[C@H](Cc1ccc(O)cc1)NC(=O)CN1CCN(CCNC(=O)CN(C)C(=O)CN(C)C(=O)CN(C)C(=O)CN(C)C(=O)CN(C)C(=O)CN(C)C(=O)CN(C)C(=O)CN(C)C(=O)CN(C)C(=O)CN(C)C(=O)CN(C)C(=O)CN(C)C(=O)CC[C@H](NC(=O)CC[C@H](NC(=O)CC[C@H](NC(=O)CCCCCCCCCCCCCCCCCCC(=O)O)C(=O)O)C(=O)O)C(=O)O)CC1)C(=O)N[C@@H](CCCNC(=N)N)C(=O)N1CCC[C@H]1C(=O)N[C@@H](CCCNC(=N)N)C(=O)NCC(N)=O` [Compound 6, C20DA-gGlu3-Sar12-AEPipAc-Tyr-Phe-NMeLeu-Nle-Arg-Pro-Arg-Gly-NH2] are 10.1 nM and over 10000 nM.
Turning to `CCCC[C@H](NC(=O)[C@H](CC(C)C)N(C)C(=O)[C@H](Cc1ccccc1)NC(=O)[C@H](Cc1ccc(O)cc1)NC(=O)CN1CCN(CCNC(=O)CN(C)C(=O)CN(C)C(=O)CN(C)C(=O)CN(C)C(=O)CN(C)C(=O)CN(C)C(=O)CN(C)C(=O)CN(C)C(=O)CN(C)C(=O)CN(C)C(=O)CN(C)C(=O)CN(C)C(=O)CN(C)C(=O)CN(C)C(=O)CN(C)C(=O)CC[C@H](NC(=O)CC[C@H](NC(=O)CC[C@H](NC(=O)CCCCCCCCCCCCCCCCC(=O)O)C(=O)O)C(=O)O)C(=O)O)CC1)C(=O)N[C@@H](CCN)C(=O)N(C)[C@@H](C)C(=O)N[C@@H](CCCNC(=N)N)C(=O)NCC(N)=O` [Compound 23, C18DA-gGlu3-Sar15-AEPipAc-Tyr-Phe-NMeLeu-Nle-Dbu-NMeAla-Arg-Gly-NH2] (HELM PEPTIDE1{[O=C(O)CCCCCCCCCCCCCCCCC(=O)[*:2]].[gGlu].[gGlu].[gGlu].[Sar].[Sar].[Sar].[Sar].[Sar].[Sar].[Sar].[Sar].[Sar].[Sar].[Sar].[Sar].[Sar].[Sar].[Sar].[O=C(CN1CCN(CCN[*:1])CC1)[*:2]].Y.F.[meL].[Nle].[Dab].[meA].R.G.[am]}$$$$V2.0), the inhibition constant Ki at human NMUR2 receptor was 38.8 nM; on human NMUR1 receptor, over 10000 nM.
Regarding `CCCC[C@H](NC(=O)[C@H](CC(C)C)N(C)C(=O)[C@H](Cc1ccccc1)NC(=O)[C@H](Cc1ccc(O)cc1)NC(=O)CN1CCN(CCNC(=O)CN(C)C(=O)CN(C)C(=O)CN(C)C(=O)CN(C)C(=O)CN(C)C(=O)CN(C)C(=O)CN(C)C(=O)CN(C)C(=O)CN(C)C(=O)CC[C@H](NC(=O)CC[C@H](NC(=O)CC[C@H](NC(=O)CCCCCCCCCCCCCCCCCCC(=O)O)C(=O)O)C(=O)O)C(=O)O)CC1)C(=O)N[C@@H](CCCNC(=N)N)C(=O)N1CCC[C@H]1C(=O)N[C@@H](CCCNC(=N)N)C(=O)NCC(N)=O` [Compound 65, C20DA-gGlu3-Sar9-AEPipAc-Tyr-Phe-NMeLeu-Nle-Arg-Pro-Arg-Gly-NH2] (HELM PEPTIDE1{[O=C(O)CCCCCCCCCCCCCCCCCCC(=O)[*:2]].[gGlu].[gGlu].[gGlu].[Sar].[Sar].[Sar].[Sar].[Sar].[Sar].[Sar].[Sar].[Sar].[O=C(CN1CCN(CCN[*:1])CC1)[*:2]].Y.F.[meL].[Nle].R.P.R.G.[am]}$$$$V2.0), the Ki on human NMUR2 receptor stood at 25.3 nM; at human NMUR1 receptor, 722 nM.

The values are drawn from patent US20240279278A1, “NMU RECEPTOR 2 AGONISTS” (Boehringer Ingelheim International GmbH, priority 2023, published 2024).
